{"source": "patent US20020169153A1", "about": "“Substituted aromatic compounds for treatment of antibiotic resistant infections” (priority 1998, published 2002)", "tested_on": "Staphylococcus aureus methicillin-resistant wild type T67738", "assay": "Susceptibility test, microtiter broth dilution (MIC), resistant S. aureus", "assay_type": "cell-based", "settings": "in culture", "procedure": "The strains were streaked on blood agar plates (trypticase soy broth containing 5% sheep cells). A single colony was isolated and grown in Mueller-Hinton Broth (MHB) as recommended by the national Committee for Clinical Laboratory Standards for rapidly growing bacteria. Candida species and related yeasts were isolated in a similar manner on brain-heart infusion agar (BHI).\nThe antibiotic susceptibility profile of each strain was determined using standard microtiter dilution plates obtained from the Clinical Microbiology Laboratory at Ohio State University Hospitals. The Inocula were prepared by suspending a 4 hour log phase growth in MHB visually equal in turbidity of an 0.5 McFarland standard. Inocula were further diluted and added to microdilution trays to achieve a final density of approximately 1×10^5 CFU/ml. The trays were incubated for 16 to 20 hours at 35° C. The highest dilution at which wells remained clear was considered to be the minimum inhibitory concentration (MIC).\nThe MIC and minimum bacterial concentration (MBC) of the strains to the active agents were determined by two-fold dilutions in Mueller-Hinton broth. […]"}
{"molecule": "OC(c1c2cccc(Cl)c2cc2c(Cl)cccc12)C1CCCCN1", "note": "(stereo not drawn) [WR 218394, α-(2-PIPERIDYL)-4,5-DICHLORO-9-ANTHRACENEMETHANOL]", "values": [{"measurement": "Effective Concentration S. Aureous (Resist).", "value": 3.1, "unit": "µg/mL"}]}
